Assay results reported in US10588889B2 (priority 2015, dated 2020).

How the values were obtained:
[1] = tested on: mouse model of opioid induced hyperalgesia; details: in vivo, sc
[2] = tested on: opioid induced hyperalgesia; test: Human subject with morphine-induced hyperalgesia switched to compound (Example 3); format: in vivo; details: morphine stopped, compound administered
[3] = tested on: nociceptive sensitization; test: Subject with opioid-induced increased nociceptive sensitization switched to compound (Example 4); format: in vivo; details: subject switched from opioid to pharmaceutical composition of compound
From the text: A subject is identified as having increased nociceptive sensitization due to being administered an opioid for pain relief. The subject is switched from the opioid to a pharmaceutical composition comprising Compound 140 or Compound 265. The subject's nociceptive sensitization is decreased while maintaining the pain relief.

Compound: COc1ccc2c3c1O[C@H]1C(=O)CC[C@@]4(O)[C@@H](C2)N(C)CC[C@]314 [Oxycodone]
- % non-responses to 10 applications of a 0.4 g von Frey filament (hyperalgesia induction) [1]: decreased the % non-responses

Compound: COc1ccsc1CNCC[C@@]1(c2ccccn2)CCOC2(CCCC2)C1 [Compound 140]
- opioid induced hyperalgesia in human subject after stopping morphine [2]: treated and reduced
- nociceptive sensitization after switch from opioid [3]: decreased
